Data on 7 cell lines can be found in the supplement of paper PMC10307832.

Holding throughout (assay): relative viability (nuclei count vs DMSO), 5 days (fraction); higher = more cells survive
Compound in the test “Pictilisib + Dasatinib”: CS(=O)(=O)N1CCN(Cc2cc3nc(-c4cccc5[nH]ncc45)nc(N4CCOCC4)c3s2)CC1 [Pictilisib] + Cc1nc(Nc2ncc(C(=O)Nc3c(C)cccc3Cl)s2)cc(N2CCN(CCO)CC2)n1 [Dasatinib] (partner 0.075 µM)
Put shortly: (§1)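 Each reported value is a median over duplicate plates. It expresses relative viability: treated-well nuclei count divided by vehicle-well nuclei count. Lung cancer cell lines in 1536-well plates were dosed by pin tool a day after seeding, alone with one drug or with a fixed anchor-drug dose plus five library-drug doses (not always all listed) in √10 steps, and nuclei were counted after 5 days.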

Compound in the test “MK-2206 + Pemetrexed”: NC1(c2ccc(-c3nc4ccn5c(=O)[nH]nc5c4cc3-c3ccccc3)cc2)CCC1 [MK-2206] + Nc1nc2[nH]cc(CCc3ccc(C(=O)N[C@@H](CCC(=O)O)C(=O)O)cc3)c2c(=O)[nH]1 [Pemetrexed] (partner 0.2 µM)
Put shortly: as §1

Compound in the test “MK-2206 + Navitoclax”: NC1(c2ccc(-c3nc4ccn5c(=O)[nH]nc5c4cc3-c3ccccc3)cc2)CCC1 [MK-2206] + CC1(C)CCC(c2ccc(Cl)cc2)=C(CN2CCN(c3ccc(C(=O)NS(=O)(=O)c4ccc(N[C@H](CCN5CCOCC5)CSc5ccccc5)c(S(=O)(=O)C(F)(F)F)c4)cc3)CC2)C1 [Navitoclax] (partner 0.5 µM)
A digest of the protocol: as §1

Compound in the test “MK-2206 + OSI-027”: NC1(c2ccc(-c3nc4ccn5c(=O)[nH]nc5c4cc3-c3ccccc3)cc2)CCC1 [MK-2206] + COc1cccc2cc(-c3nc([C@H]4CC[C@H](C(=O)O)CC4)n4ncnc(N)c34)[nH]c12 [OSI-027] (partner 0.5 µM)
Put shortly:
as §1

Compound in the test “MK-2206 + Phenformin”: NC1(c2ccc(-c3nc4ccn5c(=O)[nH]nc5c4cc3-c3ccccc3)cc2)CCC1 [MK-2206] + N=C(N)NC(=N)NCCc1ccccc1 [Phenformin] (partner 250 µM)
A digest of the protocol: as §1

On to NCI-H2023, for which the relative viability with Pictilisib + Dasatinib (first compound 0.02 µM) turned out to be 0.556; in the test with Pictilisib + Dasatinib (first compound 0.06325 µM), 0.509; with Pictilisib + Dasatinib (first compound 0.6325 µM) it was 0.182; in the test with Pictilisib + Dasatinib (first compound 2 µM) it was 0.0932; in the test with MK-2206 + Pemetrexed (first compound 0.01 µM), 0.266; with MK-2206 + Pemetrexed (first compound 0.03162 µM) it was 0.195. The relative viability amounted to 0.25 in the test with MK-2206 + Pemetrexed (first compound 0.3162 µM); 0.209 with MK-2206 + Pemetrexed (first compound 1 µM); 0.985 with MK-2206 + Navitoclax (first compound 0.01 µM); 1.06 with MK-2206 + Navitoclax (first compound 0.03162 µM); 0.895 with MK-2206 + Navitoclax (first compound 0.3162 µM); 0.716 with MK-2206 + Navitoclax (first compound 1 µM). The relative viability was 0.407 with MK-2206 + OSI-027 (first compound 0.01 µM); 0.366 with MK-2206 + OSI-027 (first compound 0.03162 µM); 0.208 in the test with MK-2206 + OSI-027 (first compound 0.3162 µM); 0.227 with MK-2206 + OSI-027 (first compound 1 µM); 0.398 with MK-2206 + Phenformin (first compound 0.01 µM); 0.416 in the test with MK-2206 + Phenformin (first compound 0.03162 µM). In addition, the relative viability with MK-2206 + Phenformin (first compound 0.3162 µM) was found to be 0.343; in the test with MK-2206 + Phenformin (first compound 1 µM), 0.271.

For NCI-H2085, the relative viability was found to be 0.241 in the test with Pictilisib + Dasatinib (first compound 0.02 µM); 0.22 with Pictilisib + Dasatinib (first compound 0.06325 µM); 0.198 with Pictilisib + Dasatinib (first compound 0.6325 µM); 0.18 with Pictilisib + Dasatinib (first compound 2 µM); 0.866 with MK-2206 + Pemetrexed (first compound 0.01 µM); 1.02 in the test with MK-2206 + Pemetrexed (first compound 0.03162 µM). Moreover, the relative viability was found to be 0.953 with MK-2206 + Pemetrexed (first compound 0.3162 µM); 0.841 in the test with MK-2206 + Pemetrexed (first compound 1 µM); 1.09 in the test with MK-2206 + Navitoclax (first compound 0.01 µM); 1.19 with MK-2206 + Navitoclax (first compound 0.03162 µM); 0.902 with MK-2206 + Navitoclax (first compound 0.3162 µM); 0.825 with MK-2206 + Navitoclax (first compound 1 µM). For the same cell line, the relative viability was 0.676 with MK-2206 + OSI-027 (first compound 0.01 µM); 0.819 with MK-2206 + OSI-027 (first compound 0.03162 µM); 0.474 with MK-2206 + OSI-027 (first compound 0.3162 µM); 0.365 with MK-2206 + OSI-027 (first compound 1 µM); 0.713 with MK-2206 + Phenformin (first compound 0.01 µM); 0.834 with MK-2206 + Phenformin (first compound 0.03162 µM). Moreover, the relative viability in the test with MK-2206 + Phenformin (first compound 0.3162 µM) was 0.681; with MK-2206 + Phenformin (first compound 1 µM), 0.59.

With NCI-H2087, the relative viability with Pictilisib + Dasatinib (first compound 0.02 µM) is 0.672; with Pictilisib + Dasatinib (first compound 0.06325 µM), 0.822; with Pictilisib + Dasatinib (first compound 0.6325 µM) it was 0.632; in the test with Pictilisib + Dasatinib (first compound 2 µM), 0.691; in the test with MK-2206 + Pemetrexed (first compound 0.01 µM), 0.623; in the test with MK-2206 + Pemetrexed (first compound 0.03162 µM), 0.624. Further, the relative viability turned out to be 0.667 with MK-2206 + Pemetrexed (first compound 0.3162 µM); 0.684 with MK-2206 + Pemetrexed (first compound 1 µM); 1.14 with MK-2206 + Navitoclax (first compound 0.01 µM); 0.905 with MK-2206 + Navitoclax (first compound 0.03162 µM); 0.906 with MK-2206 + Navitoclax (first compound 0.3162 µM); 0.912 with MK-2206 + Navitoclax (first compound 1 µM). In addition, the relative viability with MK-2206 + OSI-027 (first compound 0.01 µM) worked out at 0.548; in the test with MK-2206 + OSI-027 (first compound 0.03162 µM), 0.636; in the test with MK-2206 + OSI-027 (first compound 0.3162 µM) it was 0.392; with MK-2206 + OSI-027 (first compound 1 µM) it was 0.303; with MK-2206 + Phenformin (first compound 0.01 µM), 0.531; in the test with MK-2206 + Phenformin (first compound 0.03162 µM) it was 0.361. Moreover, the relative viability is 0.404 with MK-2206 + Phenformin (first compound 0.3162 µM) and 0.317 with MK-2206 + Phenformin (first compound 1 µM).

On to NCI-H2126, for which the relative viability was 0.626 with Pictilisib + Dasatinib (first compound 0.02 µM); 0.566 in the test with Pictilisib + Dasatinib (first compound 0.06325 µM); 0.337 in the test with Pictilisib + Dasatinib (first compound 0.6325 µM); 0.3 in the test with Pictilisib + Dasatinib (first compound 2 µM); 0.708 in the test with MK-2206 + Pemetrexed (first compound 0.01 µM); 0.653 with MK-2206 + Pemetrexed (first compound 0.03162 µM). Moreover, the relative viability in the test with MK-2206 + Pemetrexed (first compound 0.3162 µM) amounted to 0.61; with MK-2206 + Pemetrexed (first compound 1 µM), 0.701; with MK-2206 + Navitoclax (first compound 0.01 µM), 0.821; in the test with MK-2206 + Navitoclax (first compound 0.03162 µM), 0.814; with MK-2206 + Navitoclax (first compound 0.3162 µM), 0.782; in the test with MK-2206 + Navitoclax (first compound 1 µM) it was 0.793. The relative viability with MK-2206 + OSI-027 (first compound 0.01 µM) worked out at 0.709; with MK-2206 + OSI-027 (first compound 0.03162 µM), 0.683; with MK-2206 + OSI-027 (first compound 0.3162 µM) it was 0.567; in the test with MK-2206 + OSI-027 (first compound 1 µM), 0.48; with MK-2206 + Phenformin (first compound 0.01 µM) it was 0.515; with MK-2206 + Phenformin (first compound 0.03162 µM), 0.501. Moreover, the results for the relative viability in the test with MK-2206 + Phenformin (first compound 0.3162 µM) and with MK-2206 + Phenformin (first compound 1 µM) were 0.446 and 0.426, respectively.

On to NCI-H2170, for which the relative viability in the test with Pictilisib + Dasatinib (first compound 0.02 µM) was determined as 0.544; in the test with Pictilisib + Dasatinib (first compound 0.06325 µM) it was 0.754; in the test with Pictilisib + Dasatinib (first compound 0.6325 µM), 0.522; with Pictilisib + Dasatinib (first compound 2 µM) it was 0.343; in the test with MK-2206 + Pemetrexed (first compound 0.01 µM), 0.246; in the test with MK-2206 + Pemetrexed (first compound 0.03162 µM), 0.264. Besides, the relative viability with MK-2206 + Pemetrexed (first compound 0.3162 µM) was 0.286; in the test with MK-2206 + Pemetrexed (first compound 1 µM) it was 0.24; in the test with MK-2206 + Navitoclax (first compound 0.01 µM), 0.65; in the test with MK-2206 + Navitoclax (first compound 0.03162 µM), 0.485; with MK-2206 + Navitoclax (first compound 0.3162 µM), 0.546; with MK-2206 + Navitoclax (first compound 1 µM), 0.512. For the same cell line, the relative viability with MK-2206 + OSI-027 (first compound 0.01 µM) is 0.747; with MK-2206 + OSI-027 (first compound 0.03162 µM), 0.701; in the test with MK-2206 + OSI-027 (first compound 0.3162 µM), 0.625; in the test with MK-2206 + OSI-027 (first compound 1 µM), 0.588; in the test with MK-2206 + Phenformin (first compound 0.01 µM) it was 0.398; with MK-2206 + Phenformin (first compound 0.03162 µM), 0.44. Besides, the relative viability with MK-2206 + Phenformin (first compound 0.3162 µM) was 0.426; with MK-2206 + Phenformin (first compound 1 µM), 0.404.

NCI-H2228: the relative viability in the test with Pictilisib + Dasatinib (first compound 0.02 µM) is 0.654; with Pictilisib + Dasatinib (first compound 0.06325 µM) it was 0.433; with Pictilisib + Dasatinib (first compound 0.6325 µM), 0.317; with Pictilisib + Dasatinib (first compound 2 µM), 0.167; in the test with MK-2206 + Pemetrexed (first compound 0.01 µM) it was 0.333; with MK-2206 + Pemetrexed (first compound 0.03162 µM), 0.307. The relative viability in the test with MK-2206 + Pemetrexed (first compound 0.3162 µM) worked out at 0.336; with MK-2206 + Pemetrexed (first compound 1 µM) it was 0.318; in the test with MK-2206 + Navitoclax (first compound 0.01 µM), 1.12; with MK-2206 + Navitoclax (first compound 0.03162 µM), 0.724; with MK-2206 + Navitoclax (first compound 0.3162 µM) it was 0.678; with MK-2206 + Navitoclax (first compound 1 µM), 0.585. The relative viability in the test with MK-2206 + OSI-027 (first compound 0.01 µM) is 0.69; in the test with MK-2206 + OSI-027 (first compound 0.03162 µM) it was 0.446; with MK-2206 + OSI-027 (first compound 0.3162 µM), 0.271; in the test with MK-2206 + OSI-027 (first compound 1 µM), 0.214; with MK-2206 + Phenformin (first compound 0.01 µM), 0.332; with MK-2206 + Phenformin (first compound 0.03162 µM), 0.326. The relative viability turned out to be 0.214 with MK-2206 + Phenformin (first compound 0.3162 µM) and 0.219 in the test with MK-2206 + Phenformin (first compound 1 µM).

Turning to NCI-H2347, the relative viability with Pictilisib + Dasatinib (first compound 0.02 µM) was 0.321; in the test with Pictilisib + Dasatinib (first compound 0.06325 µM) it was 0.297; with Pictilisib + Dasatinib (first compound 0.6325 µM) it was 0.337; with Pictilisib + Dasatinib (first compound 2 µM) it was 0.215; in the test with MK-2206 + Pemetrexed (first compound 0.01 µM), 0.408; with MK-2206 + Pemetrexed (first compound 0.03162 µM) it was 0.44. Moreover, the relative viability with MK-2206 + Pemetrexed (first compound 0.3162 µM) is 0.433; with MK-2206 + Pemetrexed (first compound 1 µM), 0.45; with MK-2206 + Navitoclax (first compound 0.01 µM), 0.752; with MK-2206 + Navitoclax (first compound 0.03162 µM), 0.883; with MK-2206 + Navitoclax (first compound 0.3162 µM) it was 0.684; in the test with MK-2206 + Navitoclax (first compound 1 µM), 0.883. In addition, the relative viability with MK-2206 + OSI-027 (first compound 0.01 µM) amounted to 0.384; with MK-2206 + OSI-027 (first compound 0.03162 µM), 0.375; in the test with MK-2206 + OSI-027 (first compound 0.3162 µM), 0.413; in the test with MK-2206 + OSI-027 (first compound 1 µM), 0.277; with MK-2206 + Phenformin (first compound 0.01 µM) it was 0.443; in the test with MK-2206 + Phenformin (first compound 0.03162 µM), 0.345. Besides, the relative viability came out at 0.51 with MK-2206 + Phenformin (first compound 0.3162 µM) and 0.224 in the test with MK-2206 + Phenformin (first compound 1 µM).
